# Where “and” joins values, the source holds several entries; their conditions need not be identical. Equal entries are not always repeated.
# Assays:
# PPV [1] = test: Inactivation of spiked PPV in PEP by BPL, PPV titered by chloroform/PEG method (Example 3); format: cell-based, porcine parvovirus (PPV)
# Source text: U.S. Patent Publication No. 2009/0226414, incorporated by reference herein, provides a reproducible and efficient method for detecting an infectious non-enveloped virus, such as PPV, in an enzyme preparation (e.g., a pancreatic enzyme preparation) by treating the preparation prior to determining its viral infectivity. This method preserves the infectious non-enveloped virus while substantially eliminating the toxic enzyme materials from the PEP samples.
# The steps of this method include:
# (a) extracting a sample of the preparation at least two times with chloroform to produce a clarified sample with an upper phase and a lower phase;
# (b) precipitating an aliquot of the upper phase from step (a) with polyethylene glycol (PEG);
# (c) suspending the product from step (b) in a buffer;
# (d) precipitating the product from step (c) with PEG;
# (e) suspending the product from step (d) in a solution;
# (f) removing excess PEG and fine particles from product (e) by chloroform, this allows (i) in step (e) the suspending in a 10-times smaller volume to increase the overall sensitivity up to 10-fold; and (ii) removal of the remaining interfering materials from the least diluted steps of the most toxic samples; and
# (g) detecting the presence of or measuring the amount of infectious virus in the solution.
# Pancrelipase powders from 2 different lots were each dissolved in 100 mM Tris, pH=8.3, at a concentration of 100 mg/ml. Two ml non-purified PPV viral stock (prepared using standard protocols (Arella et al., Physicichemical properties, production, and purification of parvoviruses. 1990, In Tijssen, P. (ed.), CRC handbook of parvoviruses. Boca Raton, Fla.: CRC Press, 11-30)) were added to 38 ml of the pancrelipase solution. The virus was mixed with the PEP using slow shaking at room temperature for one day. Aliquots were taken from the PPV-spiked pancrelipase stocks and each was incubated with different concentrations of BPL (available from Sigma-Aldrich, St. Louis, Mo.) (except the control) for 48 hours at room temperature (20° C.). […] Determination of the FFID50 was performed using the fluorescence assay as described in the PPV FFID-infectivity assay of U.S. Patent Publication No. 2009/0226414.
# The experiment described in Example 1 was repeated except PEG-purified PPV was used for the infectivity assay as described in U.S. Patent Publication No. 2009/0226414.
# PPV [2] = test: Inactivation of PPV by 0.8% (v/v) BPL at 4° C. (Example 6); format: cell-based, porcine parvovirus (PPV); conditions: 0.8% BPL (4 h) at 4° C.
# Experimental: Samples prepared as in Example 1 were treated for four hours with 0.8% (v/v) BPL at 4° C.
# amylase = test: Amylase activity of pancrelipase after BPL treatment, freezing and lyophilization (USP 31 method); format: biochemical; conditions: for Loss of Amylase Activity: pancrelipase, freezing, lyophilization, precision 5-10%
# Experimental: Enzymatic activity for the enzymes of a PEP (e.g., proteases, lipases, and amylases) can be determined, for example, by using the United States Pharmacopeia (USP) monographed methods (The United States Pharmacopeia and the National Formulary (USP 31/NF 26). 2008. Rockville (MD): United States Pharmacopeial Convention, Inc.).
# The samples c-d from all the experiments were tested for lipase, protease, and amylase enzymatic activity using USP 31 monographed methods. See Example 11 and Table 11.
# Table 11 presents the lipase, protease, and amylase activity for aliquots of the pancrelipase after BPL treatment for 30 min at 25° C. followed by freezing and lyophilization (same treatment as for samples in Example 10).
# PPV [3] = test: Inactivation of PPV by BPL (30 min, 25° C.), BPL then inactivated with sodium thiosulfate (Example 9); format: cell-based, porcine parvovirus (PPV); conditions: thiosulfate quench
# Experimental: 4.5 g pancrelipase (PEP) powder was dissolved in 44 ml ice cold 100 mM Tris (pH=8.3) by frequently mixing a 50-ml plastic tube that was kept on ice most of the time except when shaking. The dissolved sample was spiked with 1 ml (2×0.5 ml) PPV stock (prepared at the Institut National de la Recherche Scientifique, Québec, Canada using standard protocols (Arella et al., Physicichemical properties, production, and purification of parvoviruses. 1990, In Tijssen, P. (ed.), CRC handbook of parvoviruses. Boca Raton, Fla.: CRC Press, 11-30)) 10^7 FFID50/ml; see Example 8 and Table 8) and was mixed for another 10 minutes.
# Three aliquots of the dissolved pancrelipase were transferred into tubes (A-C) and kept on ice while (A) no BPL—the control), (B) (0.4 vol % BPL), or (C) (0.8 vol % BPL) was added to them. After a brief mixing by a vortex machine, the tubes were incubated for 30 minutes at 25° C. At the end of the incubation, the tubes were transferred on to ice and immediately four aliquots were transferred from each experimental condition into new tubes (a-d). These tubes were placed into the mixture of acetone/dry ice for fast freezing. Later, the samples were stored at −80° C.
# From the remaining solutions, aliquots from each experiment (using triplicates) were diluted 100 times in cell culture medium containing sodium thiosulfate and supplemented with traces of chloroform. Samples were briefly mixed and kept at 4° C. for at least 6 hours before further dilution for the FFID50 infectivity determination. See Example 9.
# The experiment above was repeated two more times (altogether: experiments 1-3).
# Table 9 presents the result of the inactivation of PPV by BPL for 30 min at 25° C. and subsequent inactivation of the BPL by incubating the BPL-containing PEP solutions with sodium thiosulfate for at least 6 hours at 4° C. As discussed above, three independent experiments with BPL inactivation after PPV spiking were followed by inactivation of BPL by sodium thiosulfate (3 parallels for each experiment).
structure (smiles),measurement,setting,value
"O=C1CCO1 [BPL, Beta-propiolactone]",PPV Titer reduction,"PPV [1]; PEP #1, 0.04% (v/v) BPL",10 FFID50/g
same,PPV Titer reduction,"PPV [1]; PEP #1, 0.10% (v/v) BPL",10 FFID50/g
same,PPV Titer reduction,"PPV [1]; PEP #1, 0.25% (v/v) BPL",10^5 FFID50/g
same,PPV Titer reduction,"PPV [1]; PEP #2, 0.04% (v/v) BPL",10 FFID50/g
same,PPV Titer reduction,"PPV [1]; PEP #2, 0.10% (v/v) BPL",10^2 FFID50/g
same,PPV Titer reduction,"PPV [1]; PEP #2, 0.25% (v/v) BPL",10^5 FFID50/g
same,PPV Titer reduction,"PPV [1]; PEP #3, 0.04% (v/v) BPL",10 FFID50/g
same,PPV Titer reduction,"PPV [1]; PEP #3, 0.10% (v/v) BPL",10^2 FFID50/g
same,PPV Titer reduction,"PPV [1]; PEP #3, 0.25% (v/v) BPL",10^5 FFID50/g
same,PPV Titer reduction,"PPV [1]; PEP #4, 0.04% (v/v) BPL",10 FFID50/g
same,PPV Titer reduction,"PPV [1]; PEP #4, 0.10% (v/v) BPL",10^2 FFID50/g
same,PPV Titer reduction,"PPV [1]; PEP #4, 0.25% (v/v) BPL",10^4 FFID50/g
same,Log Reduction,PPV [2]; media Mixture water + IPA,4.9 Log
same,Sample infectivity after treatment with BPL,PPV [2]; media Mixture water + IPA,5.2 FFID50/g log
same,Log Reduction,PPV [2]; media Water,5.2 Log
same,Sample infectivity after treatment with BPL,PPV [2]; media Water,5.0 FFID50/g log
same,Amylase activity maintained,amylase; lyophilized samples treated with 0.4% BPL and 0.8% BPL,maintained the majority
same,Loss of Amylase Activity,amylase; 0.4% BPL 30 min 25° C.,11.40%
same,Loss of Amylase Activity,amylase; 0.8% BPL 30 min 25° C.,28.22%
same,Mean Infectivity ± SD,"PPV [3]; 0.4% BPL, 30 min 25° C.",2.63 ± 6.86 × 10^4 FFID50/g
same,PPV Titer reduction,"PPV [3]; 0.4% BPL, 30 min 25° C.",0.65 × 10^2 FFID50/g
same,Average Results per Sample,"PPV [3]; 0.4% BPL, 30 min 25° C., experiments B1-B3",2.32 × 10^4 FFID50/g and 2.15 × 10^4 FFID50/g and 3.42 × 10^4 FFID50/g
same,"Results (PPV infectivity, single determinations)","PPV [3]; 0.4% BPL, 30 min 25° C., experiments B1-B3, 3 parallels each",2.50 × 10^4 FFID50/g and 1.98 × 10^4 FFID50/g and 3.14 × 10^4 FFID50/g and 3.96 × 10^4 FFID50/g
same,Reduction of virus infectivity,"PPV [3]; 0.4 vol % BPL, room temperature, 30 minutes",more than 60 times
same,Mean Infectivity ± SD,"PPV [3]; 0.8% BPL, 30 min 25° C.",5.25 ± 5.25 × 10^3 FFID50/g
same,PPV Titer reduction,"PPV [3]; 0.8% BPL, 30 min 25° C.",0.31 × 10^4 FFID50/g
same,Inactivation of PPV,"PPV [3]; 0.8% BPL, room temperature, 30 minutes",three magnitudes of order
